# Measurements reported in patent US20250073209A1, “COVALENT TARGETING OF RhoA FOR CANCER THERAPY” (The University of Hong Kong, priority 2023, published 2025).
# Key:
# RhoA = RhoA (Homo sapiens, UniProt P61586); experiment: Fluorescence assay of MANT-GTP binding onto RhoA; format: biochemical; settings: pre-incubation of RhoA with CL16
# Protocol: FIGS. 10A and 10B are graphs showing GTP binding assay of RhoA (0.75 μg) with CL16 (FIG. 10A) and GTP-MANT (5.6 μM) (FIG. 10B) in the buffer solution (20 mM Tris, 50 mM NaCl, 10 mM MgCl2, pH 7.5).
# HCT116 cells = experiment: F-actin staining (Alexa Fluor 488-Phalloidin), serum re-stimulation; format: cell-based, human; settings: HCT116, 24 h, 10% FBS re-stimulation 10 min
# Protocol: To further validate the inhibitory effects of CL16 on RhoA, HCT116 and HT29 cells were transfected with a FRET-RhoA biosensor, where cells with elevated RhoA activity would show a higher FRET/mTFP1. Specifically, HCT116 cells transfected with FRET-RhoA biosensor were treated with CL16 or solvent in serum-free medium for 24 h, washed with PBS, re-stimulated with 10% FBS for 10 min, washed, and then imaged in HBSS by confocal fluorescence microscopy. […] In addition, HCT116 cells were serum-starved and treated with CL16 or Rhosin for 24 h, followed by 10% FBS re-stimulation for 10 min. The cells were then washed and fixed by 4% paraformaldehyde, washed with PBS and stained with Alexa Fluor 488-Phalloidin in PBS (1:20, v/v) at room temperature for 15 min. The cells were washed with PBS, incubated with Hoechst (8.2 μM) in PBS for 15 min, washed and then imaged in PBS by confocal fluorescence microscopy. […] Since RhoA regulates cytoskeletal dynamics and RhoA activation can induce the formation of contractile F-actin, the reduction of F-actin fibers by CL16 treatment supports its inhibitory roles on RhoA signaling.
# HT29 xenograft = experiment: Mouse HT29 xenograft model; format: in vivo
# Protocol: FIG. 7A is a graph showing inhibition of tumor growth by CL16 in mouse HCT116 xenografts through intraperitoneal injection at 10 mg/kg (n=6 per group). FIG. 7B is a graph showing inhibition of tumor growth by CL16 in mouse HT29 xenografts through intraperitoneal injection at 10 mg/kg (n=7). FIG. 7C is a graph showing the body weight of mice with HT29 xenografts throughout the treatment with CL16. FIG. 7D is a graph showing inhibition of tumor growth by CL16 in mouse SW620 xenografts through intraperitoneal injection at 10 mg/kg (n=6 per group). FIG. 7E is a bar graph showing the tumor weight of harvested tumors from the treated mice with SW620 xenografts. FIG. 7F is a graph showing the body weight of mice with SW620 xenografts throughout the treatment with CL16. Statistical analysis using a two-tailed Student's t-test. *P<0.05.
# 7-week-old mice with weight around 20 g were inoculated subcutaneously with HCT116 (2×10^6 cells per mouse) or HT29 (3×10^6 cells per mouse) cells, in serum-free RMPI or Matrigel in PBS respectively. […] The tumor volume and body weight of the nude mice were measured throughout the treatment. The tumor volume was calculated by the equation: Volume (mm^3)=1×w^2/2, where 1 and w were the length and width of the tumor. At the end of the treatment, the mice were sacrificed and the tumor weight was measured. […]
# [1] = tested on: HT29 cells with C16 Å knock-in; experiment: Wound healing assay on HT29 cells with RhoA C16A knock-in; format: cell-based, human; settings: 48 h
# Protocol: For wound healing assay, HT29 cells were seeded in 90% confluency, a wound was scratched using a P-20 tip the next day. Cell debris was washed with PBS then aspirated. Then, complete DMEM medium with CL16 or Rhosin with corresponding concentration was added to the cells. Wound closure was recorded every 24 hours under light microscope with 10× objective and measurement of wound area was made by ImageJ.
# HT29 cells with RhoA C16 Å knock-in were prepared by BrainVTA using the CRISPR-Cas9 technique. Briefly, HT29 cells were transfected with RhoA construct with mutated loci in CRISPR/Cas9 vector (U6-sa-sgRNA) using PEI. Cells were subsequently selected with 2 μg/mL puromycin and 800 μg/mL neomycin for 2 weeks. Monoclonal cells were then selected, propagated and subjected to Sanger sequencing to validate the homozygous C16 Å amino acid substitution ([…]) in RhoA gene.
# The effects of CL16 in HT29 cells expressing RhoA WT protein and HT29 cells with RhoA C16 Å knock-in by CRISPR-Cas9 were investigated, respectively, to validate the molecular mechanism of RhoA inhibition and anti-cancer properties from CL16. […] HT29 cells expressing RhoA WT or C16 Å protein were incubated with solvent vehicle, CL16 or Rhosin in complete medium for 24 h. The cells were then washed, lysed, subjected to rhotekin pull-down and immunoblotted. […]
# Sequence of RhoA (P61586 whole entry): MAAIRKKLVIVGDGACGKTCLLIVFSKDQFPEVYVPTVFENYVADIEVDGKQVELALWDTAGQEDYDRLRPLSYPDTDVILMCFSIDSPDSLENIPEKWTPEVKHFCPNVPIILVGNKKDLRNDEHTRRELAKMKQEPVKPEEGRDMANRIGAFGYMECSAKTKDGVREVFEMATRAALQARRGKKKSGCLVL
compound,measurement,setting,value
O=C(CCl)N1N=C(c2cc3ccccc3o2)CC1c1ccco1 (centres unmarked) [CL16],MANT-GTP binding onto RhoA (increase in fluorescence intensity),RhoA,significantly slowed down the increase in fluorescence intensity
same,concentration from which reduction of F-actin fibers was observed,HCT116 cells,≥ 5 µM
same,"body weight, treated vs untreated","HT29 xenograft; HT29 xenografts, FIG. 7C",no observable difference
same,tumor growth vs vehicle control,"HT29 xenograft; nude mice, 10 mg/kg intraperitoneal",significantly inhibited tumor growth
same,cell migration,[1],no inhibitory effects
